The data set is described as follows: photoluminescence quantum yield (fraction); solvent given as SMILES.

Take `O=C1OC(c2ccccc2)=N/C1=C\c1ccc(N(c2ccccc2)c2ccccc2)cc1`: the photoluminescence quantum yield is, setting by setting: (in C1CCCCC1) 0.031; (in C1CCOC1) 0.108; (in C1COCCO1) 0.045; (in CC1CCCCC1) 0.043; (in CC#N) 0.014; (in CC(C)=O) 0.055. Moreover, the photoluminescence quantum yield (in CC(C)CC(C)(C)C) stood at 0.028; the photoluminescence quantum yield (in CCCCC) was 0.029; the photoluminescence quantum yield (in CCCCCC) was 0.031; the photoluminescence quantum yield (in CCCCCCC) was 0.034; the photoluminescence quantum yield (in CCCCOCCCC) was determined as 0.036; the photoluminescence quantum yield (in CCOC(C)=O) came out at 0.095. The photoluminescence quantum yield reads like this: (in CCOCC) 0.072; (in CN(C)C=O) 0.014; (in CS(C)=O) 0.012; (in Cc1ccccc1) 0.034; (in ClC(Cl)Cl) 0.028.

Where the note is “in ClC(Cl)Cl”, `CCOC(=O)C1(O)c2cc3ccc4cccc5ccc(c2C(=O)N1C(C)(C)C)c3c45` (configuration not stated) yielded a photoluminescence quantum yield of 0.152.

`F[B-]1(F)n2cccc2C(c2ccccc2)=C2C=CC(c3cccc(OC4=[N+]5C(=C(c6ccccc6)c6cc(Br)c(Br)n6[B-]5(F)F)C=C4Br)c3)=[N+]21` had a photoluminescence quantum yield (in ClC(Cl)Cl) of 0.28.

Turning to `COCCN1C(=O)/C(=C/c2cccc(N(C)C)c2)N=C1C`, the photoluminescence quantum yield runs as follows: (in C1CCOC1) 0.13; (in CC#N) 0.04; (in CCCCCC) 0.45.

Compound `COc1cc(/C=C/CO)ccc1O` showed a photoluminescence quantum yield (in O) of 0.1.

Under “in ClCCl”, `COc1ccc(C(=O)c2c(C)c3ccc4cccc5c6cccc7ccc2c(c76)c3c45)cc1` returned a photoluminescence quantum yield of 0.018.

Consider `C(=C\c1ccc(N(c2ccccc2)c2ccccc2)cc1)/c1ccc(-c2cc(-c3ccccn3)nc(-c3ccccn3)c2)cc1`, for which the photoluminescence quantum yield reads like this: (in C1CCOC1) 0.55; (in C1COCCO1) 0.46; (in CC#N) 0.53; (in CCO) 0.54; (in ClCCl) 0.55.

Consider `CC1=[N+]2C(=C(c3ccc(C(=C(c4ccccc4)c4ccccc4)c4ccccc4)cc3)c3ccc(/C=C/c4ccc(C(=C(c5ccccc5)c5ccccc5)c5ccccc5)cc4)n3[B-]2(F)F)C=C1`, for which the photoluminescence quantum yield (in C1CCOC1) stood at 0.619.

Compound `CC(C)(C)NC(=O)c1ccc(-c2ccccc2)c2ccc3c4ccccc4c4ccccc4c3c12` returned a photoluminescence quantum yield (in ClCCl) of 0.08.

Turning to `COc1ccc2c(c1)CCC1=C(C#Cc3ccccc3)O[B-](F)(F)[O+]=C12`, for the setting “in ClCCl”, the photoluminescence quantum yield is 0.8.

For the compound `COc1ccc(-c2cc(-c3ccc(OC)cc3)c3c(N)nc(N4CCCC4)c(C#N)c3n2)cc1`, the photoluminescence quantum yield is 0.095 (in CC#N) and 0.077 (in c1ccccc1).

`c1ccc(-c2nc3c(ccc4[nH]ccc43)o2)cc1`: the photoluminescence quantum yield is 0.6 (in C1CCCCC1); 0.78 (in C1COCCO1); 0.72 (in CC#N); 0.55 (in CO); 0.69 (in Cc1ccccc1); 0.54 (in O).

In the case of `COC(=O)c1cc(OC)ccc1OC`, the photoluminescence quantum yield (in CO) amounted to 0.64.

With `F[B-]1(F)n2cccc2C(c2ccc(-c3c4ccccc4c(-c4ccccc4)c4ccccc34)cc2)=C2C=CC=[N+]21`, the photoluminescence quantum yield runs as follows: (in CC#N) 0.001; (in CCCCCC) 0.014; (in CCO) 0.003; (in CN(C)C=O) 0.002; (in Cc1ccccc1) 0.036; (in ClCCl) 0.002.

With `CC1(C)c2ccccc2N(c2ccc3nc4c5ccc(N6c7ccccc7C(C)(C)c7ccccc76)cc5c5cc(N6c7ccccc7C(C)(C)c7ccccc76)ccc5c4nc3c2)c2ccccc21`, under “in c1cc(-c2cccc(-n3c4ccccc4c4ccccc43)c2)cc(-n2c3ccccc3c3ccccc32)c1”, the photoluminescence quantum yield stood at 0.89.

In the case of `COc1ccc2cc(C3=[N+]4C(=Nc5c(-c6ccccc6)cc(-c6ccc7cc(OC)ccc7c6)n5[B-]4(F)F)C(c4ccccc4)=C3)ccc2c1`, the photoluminescence quantum yield by setting is: (in ClC(Cl)Cl) 0.33; (in ClCCl) 0.33.

For `O=S(=O)(c1ccccc1)c1ccc(-n2c3ccccc3c3c2c2ccccc2n3-c2ccccc2)cc1`, the photoluminescence quantum yield (in Cc1ccccc1) was 0.195.

In the case of `CC[N+](CC)=c1ccc2cc3c(oc-2c1)-c1ccc(N(C)C)cc1CC3`, the photoluminescence quantum yield runs as follows: (in CCO) 0.618; (in ClCCl) 0.724; (in O) 0.282.

On to `C=CB1C=Cc2ccc3ccccc3c2N1`, for which, under “in C1CCCCC1”, the photoluminescence quantum yield worked out at 0.42.

With `COc1cccc(/C=C/c2ccccc2)c1`, the photoluminescence quantum yield is, setting by setting: (in C1CCCCC1) 0.18; (in CC#N) 0.16; (in CC(C)O) 0.15; (in CCCCOCCCC) 0.2; (in CCOC(C)=O) 0.18; (in CCOCC) 0.18.

For the compound `CC(C)[Si]1(C(C)C)c2cc(C=O)ccc2-c2ccc(N(C)C)cc21`, the photoluminescence quantum yield by setting is: (in C1CCCCC1) 0.08; (in CC#N) 0.81; (in CCO) 0.4; (in CCOCC) 0.79; (in CS(C)=O) 0.57; (in ClCCl) 0.71. The photoluminescence quantum yield (in c1ccccc1) is 0.75.

`C[Si](C)(C)C#Cc1ccc(C#C[Si](C)(C)C)c2ccccc12` came in with a photoluminescence quantum yield (in C1CCCCC1) of 0.85.

With `CC/[NH+]=c1\cc2oc3cc(NC)c(C)cc3c(-c3ccccc3C(=O)OCC)c-2cc1C`, the photoluminescence quantum yield is 0.94 (in CCO) and 0.95 (in O).

Take `O=C1c2cccc3c(NCc4ccccn4)c4ccccc4c(c23)C(=O)N1Cc1ccccn1`: the photoluminescence quantum yield is, setting by setting: (in C1CCOC1) 0.07; (in CCCCCC) 0.04; (in CCO) 0.07; (in Cc1ccccc1) 0.08; (in ClCCl) 0.1.

`COc1cc(OC)cc(-c2ccc(C3=CC(c4ccccc4)=C(c4ccccc4)C3)cc2)c1` displayed a photoluminescence quantum yield (in ClCCl) of 0.0575.

Compound `N#C/C(=C\c1ccc(-c2ccncc2)cc1)c1ccc(-c2ccncc2)cc1` came in with a photoluminescence quantum yield (in ClCCl) of 0.002.

Regarding `O=C1O[B-]2(OC1=O)OC(c1ccc3ccccc3c1)=CC(c1ccc3ccccc3c1)=[O+]2`, the photoluminescence quantum yield by setting is: (in CC#N) 0.3; (in ClC(Cl)(Cl)Cl) 0.8.

In the case of `CCCCCCN(CCCCCC)c1ccc(C#Cc2ccc(C#Cc3ccc(-c4ccc(C#Cc5ccc(C#Cc6ccc(N(CCCCCC)CCCCCC)cc6)cc5)cc4)cc3)cc2)cc1`, the photoluminescence quantum yield (in Cc1ccccc1) was determined as 0.82.

For the compound `Cc1ccc(N2C(c3ccccc3NS(=O)(=O)c3ccc(C)cc3)=NC(c3ccccc3)C2c2ccccc2)cc1` (configuration not stated), where the note is “in Cc1ccccc1”, the photoluminescence quantum yield is 0.004.

For `CCC1=C(C)C2C(c3ccc(-c4ccc(-c5nc6c7ccccc7c7ccccc7c6n5-c5ccc(C(C)(C)C)cc5)cc4)cc3)c3c(C)c(CC)c(C)n3[B-](F)(F)[N+]2=C1C` (configuration not stated), the photoluminescence quantum yield (in ClC(Cl)Cl) turned out to be 0.672.

For the setting “in ClCCl”, `c1ccc2c(c1)c1ccccc1c1ccccc21` had a photoluminescence quantum yield of 0.02.

Turning to `c1ccc2c(c1)-c1ccccc1C21c2ccccc2-c2oc3c(c21)C1(c2ccccc2-c2ccccc21)c1ccccc1-3`, the photoluminescence quantum yield (in C1CCOC1) is 0.39.

For the compound `CCCCCCCCCCCCn1cccc1/C=C/c1ccc(OCCCC)c2c(/C=C/c3cccn3CCCCCCCCCCCC)ccc(OCCCC)c12`, the photoluminescence quantum yield (in Cc1ccccc1) worked out at 0.35.

Where the note is “in CC1CCCCC1”, `CC(C)(C)c1ccc2cc3c4cccc5cccc(c6cc(C(C)(C)C)cc(c2c1)c63)c54` yielded a photoluminescence quantum yield of 0.74.

The record behind these values is the Deep4Chem optical property database.
